“And” between values parts separate entries of the source, which are not always exact repeats. Equal values may be shown once.
What follows are compounds tested against Adenosine A2A receptor (Homo sapiens, UniProt P29274) (assay: cAMP assay in 293A cells stably expressing the adenosine A2A receptor (CGS21680 stimulation, HTRF)). Conditions: 293A cells stably expressing A2A receptor; 0.1% BSA; 1 uM CGS21680 stimulation; replicate values separated by /; read-out: cAMP (nM) 0.1% BSA, 1 uM CGS.
Format: cell-based
Set-up: expressed in transfected cells; host or cells: 293A cells (Invitrogen, Cat# R705-07) infected with A2A-expressing lentivirus (custom packaged by Biosettia), puromycin selected

Sequence of Adenosine A2A receptor (P29274 whole entry): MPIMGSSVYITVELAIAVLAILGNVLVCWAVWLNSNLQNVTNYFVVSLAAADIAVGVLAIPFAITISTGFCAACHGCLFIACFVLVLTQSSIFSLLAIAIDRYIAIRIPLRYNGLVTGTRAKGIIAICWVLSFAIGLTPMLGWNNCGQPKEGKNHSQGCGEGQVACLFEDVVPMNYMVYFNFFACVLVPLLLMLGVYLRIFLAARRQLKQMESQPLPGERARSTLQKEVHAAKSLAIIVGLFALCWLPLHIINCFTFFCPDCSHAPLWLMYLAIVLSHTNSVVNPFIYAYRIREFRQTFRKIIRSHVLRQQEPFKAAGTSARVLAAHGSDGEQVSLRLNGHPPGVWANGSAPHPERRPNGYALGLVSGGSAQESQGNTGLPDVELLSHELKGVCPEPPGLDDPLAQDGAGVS

Row | Compound | IC50
1 | Cc1cc(-c2c(OCc3cccc(CN(CC(=O)N(C)C)CC(=O)N(C)C)n3)nc(N)nc2-c2ccc(F)cc2)cc(C(F)F)n1 [Example 436, 2,2′-(((6-(((2-amino-5-(2-(difluoromethyl)-6-methylpyridin-4-yl)-6-(4-fluorophenyl)pyrimidin-4-yl)oxy)methyl)pyridin-2-yl)methyl)azanediyl)bis(N, N-dimethylacetamide)] | 894 nM and 530 nM
2 | Cc1cc(-c2c(OCc3nccc4c3cnn4C)nc(N)nc2-c2ccc(F)cc2)cc(C(F)F)n1 [Example 423, 5-(2-(difluoromethyl)-6-methylpyridin-4-yl)-4-(4-fluorophenyl)-6-((1-methyl-1H-pyrazolo[4,3-c]pyridin-4-yl)methoxy)pyrimidin-2-amine] | 435 nM and 732 nM

Same assay, conditions: 293A-A2AR cells, 0.1% BSA, 1 uM CGS; read-out: cAMP (nM) 0.1% BSA, 1 uM CGS

Row | Compound | IC50
3 | Cc1cc(-c2c(OCc3cccc(N4CCC(C)(O)CC4)n3)nc(N)nc2-c2ccc(F)cc2)cc(C(F)F)n1 [Example 259, 1-(6-(((2-amino-5-(2-(difluoromethyl)-6-methylpyridin-4-yl)-6-(4-fluorophenyl)pyrimidin-4-yl)oxy)methyl)pyridin-2-yl)-4-methylpiperidin-4-ol] | > 25000 nM
4 | Cc1cc(-c2c(NCc3cccc(C(C)(C)C#N)n3)nc(N)nc2-c2ccc(F)cc2)cc(C(F)F)n1 [Example 356, 2-(6-(((2-amino-5-(2-(difluoromethyl)-6-methylpyridin-4-yl)-6-(4-fluorophenyl)pyrimidin-4-yl)amino)methyl)pyridin-2-yl)-2-methylpropanenitrile] | 1420 nM
5 | Cc1cc(-c2c(OCc3cccc(N(C)CC(=O)O)n3)nc(N)nc2-c2ccc(F)cc2)cc(C(F)F)n1 [Example 327, N-(6-(((2-amino-5-(2-(difluoromethyl)-6-methylpyridin-4-yl)-6-(4-fluorophenyl)pyrimidin-4-yl)oxy)methyl)pyridin-2-yl)-N-methylglycine] | 4390 nM
6 | CCC(C#N)(CC)c1cccc(COc2nc(N)nc(-c3ccc(F)cc3)c2-c2cc(C)nc(C(F)F)c2)n1 [Example 390, 2-(6-(((2-amino-5-(2-(difluoromethyl)-6-methylpyridin-4-yl)-6-(4-fluorophenyl)pyrimidin-4-yl)oxy)methyl)pyridin-2-yl)-2-ethylbutanenitrile] | 85 nM and 98 nM and 51 nM
7 | Cc1cc(-c2c(-c3cn(Cc4cccc(C(C)(C)O)n4)nn3)nc(N)nc2-c2cccc(C#N)c2C)cc(C(F)F)n1 [Example 312, 3-(2-amino-5-(2-(difluoromethyl)-6-methylpyridin-4-yl)-6-(1-((6-(2-hydroxypropan-2-yl)pyridin-2-yl)methyl)-1H-1,2,3-triazol-4-yl)pyrimidin-4-yl)-2-methylbenzonitrile] | 16600 nM
8 | Cc1cc(-c2c(OCc3cccc(N4CC(C)(O)C4)n3)nc(N)nc2-c2ccc(F)cc2)cc(C(F)F)n1 [Example 260, 1-(6-(((2-amino-5-(2-(difluoromethyl)-6-methylpyridin-4-yl)-6-(4-fluorophenyl)pyrimidin-4-yl)oxy)methyl)pyridin-2-yl)-3-methylazetidin-3-ol] | 1360 nM
9 | Cc1cc(-c2c(OCc3cccc(C(C)(C)OCC(=O)O)n3)nc(N)nc2-c2ccc(F)cc2)cc(C(F)F)n1 [Example 296, 2-((2-(6-(((2-amino-5-(2-(difluoromethyl)-6-methylpyridin-4-yl)-6-(4-fluorophenyl)pyrimidin-4-yl)oxy)methyl)pyridin-2-yl)propan-2-yl)oxy)acetic acid] | 3630 nM
10 | Cc1cc(-c2c(OCCN(C)c3cccnn3)nc(N)nc2-c2cccc(C#N)c2C)cc(C(F)F)n1 [Example 246, 3-(2-amino-5-(2-(difluoromethyl)-6-methylpyridin-4-yl)-6-(2-(methyl(pyridazin-3-yl)amino)ethoxy)pyrimidin-4-yl)-2-methylbenzonitrile] | 981 nM
11 | Cc1cc(-c2c(OCc3ccccn3)nc(NCC(=O)O)nc2-c2ccc(F)cc2)cc(C(F)F)n1 [Example 364, (5-(2-(difluoromethyl)-6-methylpyridin-4-yl)-4-(4-fluorophenyl)-6-(pyridin-2-ylmethoxy)pyrimidin-2-yl)glycine] | > 25000 nM
12 | Cc1cc(-c2c(OCc3nc4n(n3)CCCC4)nc(N)nc2-c2ccc(F)cc2)cc(C(F)F)n1 [Example 352, 5-(2-(difluoromethyl)-6-methylpyridin-4-yl)-4-(4-fluorophenyl)-6-((5,6,7,8-tetrahydro-[1,2,4]triazolo[1,5-a]pyridin-2-yl)methoxy)pyrimidin-2-amine] | 1790 nM
13 | Cc1cc(-c2c(OCc3ccc(F)c(C(C)(C)C(=O)O)n3)nc(N)nc2-c2ccc(F)cc2)cc(C(F)F)n1 [Example 375, 2-(6-(((2-amino-5-(2-(difluoromethyl)-6-methylpyridin-4-yl)-6-(4-fluorophenyl)pyrimidin-4-yl)oxy)methyl)-3-fluoropyridin-2-yl)-2-methylpropanoic acid] | 17600 nM and 23300 nM
14 | Cc1cc(-c2c(OCc3cccc(N(C)CCC(=O)O)n3)nc(N)nc2-c2ccc(F)cc2)cc(C(F)F)n1 [Example 328, 3-((6-(((2-amino-5-(2-(difluoromethyl)-6-methylpyridin-4-yl)-6-(4-fluorophenyl)pyrimidin-4-yl)oxy)methyl)pyridin-2-yl)(methyl)amino) propanoic acid] | 4510 nM
15 | CCn1[nH]c(=O)cc1COc1nc(N)nc(-c2ccc(F)cc2)c1-c1cc(C)nc(C(F)F)c1 [Example 330, 5-(((2-amino-5-(2-(difluoromethyl)-6-methylpyridin-4-yl)-6-(4-fluorophenyl)pyrimidin-4-yl)oxy)methyl)-1-ethyl-1,2-dihydro-3H-pyrazol-3-one] | 2550 nM
16 | CCc1c(COc2nc(N)nc(-c3ccc(F)cc3)c2-c2cc(C)nc(C(F)F)c2)nnn1CC(=O)O [Example 232, 2-(4-(((2-amino-5-(2-(difluoromethyl)-6-methylpyridin-4-yl)-6-(4-fluorophenyl)pyrimidin-4-yl)oxy)methyl)-5-ethyl-1H-1,2,3-triazol-1-yl)acetic acid] | 4510 nM
17 | CCc1nn(C[C@H](O)CO)nc1COc1nc(N)nc(-c2ccc(F)cc2)c1-c1cc(C)nc(C(F)F)c1 [Example 316, (S)-3-(4-(((2-amino-5-(2-(difluoromethyl)-6-methylpyridin-4-yl)-6-(4-fluorophenyl)pyrimidin-4-yl)oxy)methyl)-5-ethyl-2H-1,2,3-triazol-2-yl)propane-1,2-diol] | 1080 nM
18 | Cc1cc(-c2c(OCc3cccc(C(C)(C)C(=O)O)c3)nc(N)nc2-c2ccc(F)cc2)cc(C(F)F)n1 [Example 363, 2-(3-(((2-amino-5-(2-(difluoromethyl)-6-methylpyridin-4-yl)-6-(4-fluorophenyl)pyrimidin-4-yl)oxy)methyl)phenyl)-2-methylpropanoic acid] | 4800 nM
19 | Cc1cc(-c2c(OCCc3cccc(C(C)(C)C#N)n3)nc(N)nc2-c2ccc(F)cc2)cc(C(F)F)n1 [Example 362, 2-(6-(2-((2-amino-5-(2-(difluoromethyl)-6-methylpyridin-4-yl)-6-(4-fluorophenyl)pyrimidin-4-yl)oxy)ethyl)pyridin-2-yl)-2-methylpropanenitrile] | 85 nM and 158 nM and 45 nM
20 | Cc1cc(-c2c(OCc3cc4ccccc4s3)nc(N)nc2-c2ccc(F)cc2)cc(C(F)F)n1 [Example 343, 4-(benzo[b]thiophen-2-ylmethoxy)-5-(2-(difluoromethyl)-6-methylpyridin-4-yl)-6-(4-fluorophenyl)pyrimidin-2-amine] | 1340 nM

Source: patent US20210355104A1, “ADENOSINE RECEPTOR BINDING COMPOUNDS” (Nikang Therapeuticsm Inc., priority 2018, published 2021)
